“And” between values parts separate entries of the source, which are not always exact repeats. Equal values may be shown once.
How the values were obtained:
[1] = molecular target: mouse heart mitochondrial membranes (complex I) (Mus musculus, UniProt P03888+P03899+Q91WD5+Q9DC70); assay: NADH:O2 oxidoreduction by mouse heart mitochondrial membranes; format: biochemical; details: for HillSlope (best fit value) / LogIC50 (best fit value): Prism variable slope fit; for LogIC50 (best fit value): log of IC50 in mM; for IC50: read-out: IC50 (best fit value), Prism variable slope fit, Bottom 0, Top 100
mouse heart mitochondrial membranes (complex I), sequence (P03899 whole entry): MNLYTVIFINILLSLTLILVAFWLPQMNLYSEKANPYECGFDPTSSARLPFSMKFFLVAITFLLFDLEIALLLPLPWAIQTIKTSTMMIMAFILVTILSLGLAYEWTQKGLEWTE
mouse heart mitochondrial membranes (complex I), sequence (P03888 whole entry): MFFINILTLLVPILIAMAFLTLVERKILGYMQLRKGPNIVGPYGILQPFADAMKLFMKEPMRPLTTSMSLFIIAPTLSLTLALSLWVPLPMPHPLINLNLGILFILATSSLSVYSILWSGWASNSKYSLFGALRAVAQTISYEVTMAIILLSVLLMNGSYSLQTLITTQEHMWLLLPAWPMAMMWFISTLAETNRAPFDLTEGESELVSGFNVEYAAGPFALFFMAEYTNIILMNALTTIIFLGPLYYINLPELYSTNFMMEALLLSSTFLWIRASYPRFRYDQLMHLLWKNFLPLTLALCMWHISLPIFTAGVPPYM
mouse heart mitochondrial membranes (complex I), sequence (Q9DC70 36-224): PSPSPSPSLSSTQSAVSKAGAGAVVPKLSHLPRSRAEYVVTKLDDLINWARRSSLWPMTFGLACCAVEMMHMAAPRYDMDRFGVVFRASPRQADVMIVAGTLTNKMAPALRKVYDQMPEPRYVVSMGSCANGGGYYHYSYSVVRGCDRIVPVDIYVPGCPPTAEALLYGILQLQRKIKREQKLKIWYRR
mouse heart mitochondrial membranes (complex I), sequence (Q91WD5 34-463): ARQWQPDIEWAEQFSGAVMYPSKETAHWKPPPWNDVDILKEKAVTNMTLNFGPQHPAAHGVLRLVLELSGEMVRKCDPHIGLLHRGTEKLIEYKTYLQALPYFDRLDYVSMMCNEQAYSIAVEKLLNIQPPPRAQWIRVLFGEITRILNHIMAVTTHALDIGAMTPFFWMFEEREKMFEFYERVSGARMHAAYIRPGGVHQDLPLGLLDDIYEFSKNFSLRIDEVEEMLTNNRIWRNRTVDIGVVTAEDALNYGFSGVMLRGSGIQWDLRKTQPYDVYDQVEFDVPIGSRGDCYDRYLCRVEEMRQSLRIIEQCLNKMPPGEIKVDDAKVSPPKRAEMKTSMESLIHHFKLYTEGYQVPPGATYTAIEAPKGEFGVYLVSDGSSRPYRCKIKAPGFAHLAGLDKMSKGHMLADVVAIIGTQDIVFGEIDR
Outline: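 At 32 °C, rates were taken by linear regression of NADH absorbance loss after NADH start. Isolated enzyme (0.5 μg mL^−1): 200 μM decylubiquinone, 200 μM NADH, pH 7.2 Tris with 0.15 % asolectin and CHAPS. Membranes (5 μg mL^−1): 200 μM NADH, 0.15 mM cytochrome c, pH 7.4 Tris-sucrose. IC50s carry 95 % confidence intervals.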

[2] = test system: AMPK-α (phospho-Thr172); assay: AMPK activation, western blot of phospho-AMPK-α in MDBK cells; format: cell-based, Bos taurus; details: for p-alpha, average normalised to control: Averages of experiments 1-3, 18 hours; for p-alpha: band intensity
Protocol: MDBK cells were seeded at 1 × 10^6 cells per 6 cm dish in DMEM containing 10 % FBS. […] After 18 h cells were harvested by a rapid lysis procedure: cells were rinsed with PBS, then lysed using ice-cold buffer containing 50 mM HEPES, 1 mM EDTA, 10 % glycerol, 50 mM NaF, 5 mM sodium pyrophosphate, 1 % Triton-X100, 1 mM dithiothreitol (DTT), and a protease inhibitor cocktail (Roche). The cell lysate was centrifuged at 14,000 × g for 20 min at 4 °C and the protein concentration of the supernatant determined by bicinchoninic acid assay. The lysate was analyzed using Novex 3–12 % bis-Tris gels run in 3-(N-morpholino)propanesulfonic acid (MOPS) buffer (20 μg of protein per lane) followed by transfer to low fluorescence polyvinylidene fluoride membranes by wet transfer. Primary rabbit antibodies for AMPK-β (57C12), AMPK-α (phospho-Thr172) (40H9), and acetyl-coA carboxylase (phospho-Ser79) (Cell Signaling Technology) were incubated overnight with the membrane (1:1000 dilution) in Odyssey blocking buffer at 4 °C. A fluorescent secondary antibody was used (IRDYE800CW from LI-COR Biosciences, 1:20,000 dilution) with a LI-COR Odyssey imaging system.

[3] = test system: mouse heart mitochondria; assay: ADP-stimulated rotenone-sensitive OCR in isolated mouse heart mitochondria; format: biochemical; set-up: rotenone sensitive OCR after ADP stimulation, individual replicates / rotenone sensitive OCR after ADP stimulation, average / rotenone sensitive OCR after 15 mins, average: unit not given here; details: for rotenone sensitive OCR after ADP stimulation, % of control, average / rotenone sensitive OCR after ADP stimulation, average: average of replicates; for rotenone sensitive OCR after ADP stimulation, % of control, individual replicates: replicate 1-11; for rotenone sensitive OCR after ADP stimulation, individual replicates: replicate 1-12
Protocol: Complex I and mitochondrial membranes were prepared from Bos taurus (bovine) heart. Intact mitochondria were isolated from rat liver and mouse heart and liver. Membranes were prepared from mouse heart mitochondria by 5 s bursts of sonication at 4 °C and collected by centrifugation (75,000 × g, 1 h).
Isolated mitochondria were monitored using a Seahorse XF96 extracellular flux analyzer at 32 °C. Mouse heart mitochondria, and mouse and rat liver mitochondria were plated into XF96 plates at 4 and 16–20 μg per well, respectively, in 220 mM mannitol, 70 mM sucrose, 10 mM KH2PO4, 5 mM MgCl2, 1 mM EGTA, 0.2 % fatty acid-free BSA, and 2 mM HEPES (pH 7.4 at 37 °C) with 10 mM glutamate and 10 mM malate and adhered by centrifugation (2000 × g, 20 min, 4 °C). The medium was supplemented with a further 5 mM glutamate and 5 mM malate and the mitochondria incubated for 15 min. Then two baseline readings were taken before the biguanides were added at IC50/5. […] Rotenone (2 μM) was added at the end of the experiment. Data from wells with failed port injections were excluded from the analyses. The RCR values (state III versus state IV respiration) were 3.4, 4.8, and 4.6 for mouse heart, rat liver, and mouse liver, respectively.

[4] = test system: permeabilized 143B cells; assay: ADP-stimulated rotenone-sensitive OCR in permeabilized 143B cells; format: cell-based, human; set-up: rotenone sensitive OCR after ADP stimulation, individual replicates / rotenone sensitive OCR after ADP stimulation, average: unit not given here; details: for rotenone sensitive OCR after ADP stimulation, % of control, individual replicates / rotenone sensitive OCR after ADP stimulation, individual replicates: replicate 1-11
Protocol: For permeabilized cell experiments, cells were seeded into XF96 plates at 0.9–1.1 × 10^4 per well and incubated for 48 h at 37 °C in 5 % CO2. Then, the growth medium was exchanged for assay buffer containing 3 nM plasma membrane permeabilizer ‘PMP’ (Seahorse Biosciences Inc.), 10 mM glutamate, 10 mM malate, 220 mM mannitol, 70 mM sucrose, 10 mM KH2PO4, 5 mM MgCl2, 1 mM EGTA, 0.2 % fatty acid-free bovine serum albumin (BSA), and 2 mM HEPES (pH 7.4 at 37 °C). […] The biguanides were allowed to accumulate for 30 min, then respiration was […] by the addition of 4 mM ADP. Rotenone was added (2 μM) at the end of the experiment.
Rotenone-sensitive OCRs were calculated by subtracting the rotenone-insensitive rates (determined at the end of the experiment). OCRs were normalized by dividing by the OCR recorded immediately prior to the addition of biguanide. For rate of uptake calculations, the OCRs at time points after biguanide addition were divided by the OCRs at the same time points in control experiments. Data from wells with failed port injections were excluded from the analyses. The respiratory control ratio (RCR) values (state III versus state IV respiration) were ~11 and ~6 for permeabilized MDBK and 143B cells, respectively.

[5] = 143B permeabilised cells, average of replicates

| SMILES | HillSlope (best fit value) [1] | LogIC50 (best fit value) [1] | IC50 [1] | p-alpha, average normalised to control [2] | p-alpha / AMPK beta ([2]; Experiment 1, 18 hours) | p-alpha / AMPK beta normalised to control ([2]; Experiment 1, 18 hours) | p-alpha ([2]; Experiment 1, 18 hours) | p-alpha / AMPK beta ([2]; Experiment 2, 18 hours) | p-alpha / AMPK beta normalised to control ([2]; Experiment 2, 18 hours) | p-alpha ([2]; Experiment 2, 18 hours) | p-alpha / AMPK beta ([2]; Experiment 3, 18 hours) | p-alpha / AMPK beta normalised to control ([2]; Experiment 3, 18 hours) | p-alpha ([2]; Experiment 3, 18 hours) | rotenone sensitive OCR after ADP stimulation, % of control, average [3] | rotenone sensitive OCR after ADP stimulation, average [3] | rotenone sensitive OCR after ADP stimulation, % of control, individual replicates [3] | rotenone sensitive OCR after ADP stimulation, individual replicates [3] | rotenone sensitive OCR after ADP stimulation, % of control, individual replicates ([4]; 143B permeabilised cells) | rotenone sensitive OCR after ADP stimulation, individual replicates ([4]; 143B permeabilised cells) | further results |
| --- | --- | --- | --- | --- | --- | --- | --- | --- | --- | --- | --- | --- | --- | --- | --- | --- | --- | --- | --- | --- |
| [H]/N=C(/N)N/C(=N/[H])NCCc1ccccc1 [phenformin, reference compound] | -0.7733 | -0.09624 | 801 µM | 3.64 | 0.44 | 3.54 | 203 | 0.63 | 4.29 | 234 | 0.64 | 3.08 | 154 | 30.06 % of control | 73.69 | 34.41 % of control and 27.92 % of control and 37.45 % of control and 23.80 % of control and 31.47 % of control and 29.88 % of control and 25.27 % of control and 30.29 % of control | 84.35 and 68.44 and 91.80 and 58.33 and 77.13 and 73.26 and 61.95 and 74.26 | 10.68 % of control and 13.07 % of control and 7.19 % of control and 19.54 % of control and 11.54 % of control and 11.56 % of control and 7.70 % of control and 13.62 % of control and 4.19 % of control and 11.40 % of control and 4.31 % of control | 25.49 and 31.21 and 17.16 and 46.64 and 27.56 and 27.59 and 18.38 and 32.52 and 10.00 and 27.22 and 10.30 | remaining activity at 130 µM ([1]; inhibitor 0.13 mM, read-out: average % (rate, % of no-inhibitor control)): 80.6%; remaining activity at 250 µM ([1]; inhibitor 0.25 mM, read-out: average % (rate, % of no-inhibitor control)): 70.4%; remaining activity at 500 µM ([1]; inhibitor 0.50 mM, read-out: average % (rate, % of no-inhibitor control)): 59.3%; remaining activity at 1000 µM ([1]; inhibitor 1.00 mM, read-out: average % (rate, % of no-inhibitor control)): 46.6%; remaining activity at 2000 µM ([1]; inhibitor 2.00 mM, read-out: average % (rate, % of no-inhibitor control)): 33.2%; remaining activity at 5000 µM ([1]; inhibitor 5.00 mM, read-out: average % (rate, % of no-inhibitor control)): 18.7%; remaining activity at 10000 µM ([1]; inhibitor 10.00 mM, read-out: average % (rate, % of no-inhibitor control)): 12.3%; AMPK activation (in words) ([2]; 18-h treatment, IC50/10 biguanide concentrations): slightly lower activation; rotenone sensitive OCR after 15 mins, average ([3]; ADP and phenformin added simultaneously, n = 8): 418.601; rotenone sensitive OCR after 15 mins, % control (no phenformin) ([3]; ADP and phenformin added simultaneously, n = 8 with phenformin, n = 6 control): 85 ± 10 % control and 85.2397 % control; oxygen consumption, % of the control value ([3]; phenformin at IC50/5 accumulated in the absence of ADP before ADP stimulation): 30% |
| [H]/N=C(\N/C(=N/[H])Nc1ccc(Cl)cc1)NC(C)C [proguanil, reference compound] | -0.7979 | -1.959 | 11 µM | 1.33 | 0.15 | 1.20 | 71.3 | 0.19 | 1.32 | 68.2 | 0.30 | 1.47 | 59.7 | 99.28 % of control | 240.45 | 98.46 % of control and 125.69 % of control and 95.82 % of control and 99.56 % of control and 95.47 % of control and 84.72 % of control and 105.21 % of control and 89.32 % of control | 238.46 and 304.41 and 232.07 and 241.13 and 231.22 and 205.20 and 254.80 and 216.32 | 79.43 % of control and 103.02 % of control and 144.04 % of control and 93.57 % of control and 102.53 % of control and 101.42 % of control and 111.43 % of control and 105.36 % of control and 115.13 % of control | 189.61 and 245.92 and 343.85 and 223.38 and 244.75 and 242.11 and 266.00 and 251.51 and 274.84 | rotenone sensitive OCR after ADP stimulation, % of control, average [4, 5]: 106.21 % of control; rotenone sensitive OCR after ADP stimulation, average [4, 5]: 253.55; inhibition of the OCR (in words) ([4]; permeabilized 143B cells, biguanide concentration equal to IC50): only limited inhibition |

Reference: publication PMC4977651, “Molecular features of biguanides required for targeting of mitochondrial respiratory complex I and activation of AMP-kinase” (BMC Biology, 2016)
